Source: patent publication US20050180954A1, “Drug for treating bone disorders” (priority 1995, published 2005)

Columns and labels:
[1] = system: ovariectomized mice of ddy strain; assay: Osteoporosis model mice (ovariectomy): dry bone weight of femur; format: in vivo, mouse
Method: (§1) Female mice of ddy strain of 8 weeks old were divided into 5 groups and experiment was carried out. Bilateral ovariectomy was performed on the mice in 3 groups and sham operation alone was performed on the mice in 2 groups. Thereafter, the mice were raised with normal diet for 1 month, thereby making the state of osteoporosis in the ovariectomized groups. In this model, it is known that the mice become the state of osteoporosis 2 to 3 weeks after the ovariectomy (T. Hosaka et al., ANITEX, Vol. 5, 243, 1992; Miyaura, C. et al., J. Bone Mineral Res., 10, 1365, 1995). From the third weeks from the ovariectomy, murine IFN was subcutaneously administered (100 μl/head/time) once per day, totally 25 times. On Day 30 from the beginning of administration, under ether anesthesia, body weight was measured, blood was collected, and femur was collected and dry bone weight thereof was measured for each mouse.
(§2) Drying of femur was performed as follows. That is, femur was fixed with 2 ml of 70% ethanol per one taken out femur at room temperature for 24 hours and then the attached muscles and connective tissues were carefully removed with a forceps and surgical knife with replaceable blade. After immersing the femur in fresh 70% ethanol for 72 hours at room temperature, the femur was dried in a hot wind-generating incubator (Koukensha Engineering. Co., Tokyo) at 55° C. for 24 hours. The weight of the dried bone was measured with an electronic force balance (Mettler AE50, Metteler Instrumente AG, Switzerland). Murine IFN to be administered was diluted to the desired concentration with physiological saline. During the test, urine of mice was collected with metabolic cage (KN-645, Natsumeseisakusho, Tokyo) and frozen to store. To one group subjected to the sham operation, physiological saline (Otsuka Pharmaceutical Co.) was administered, and to another group subjected to the sham operation, murine IFNβ was administered at a dose of 10^5 units/head/time (diluted with physiological saline when use). […]

[2] = system: MC3T3-E1 cells; assay: Mineralization of murine osteoblasts, Von Kossa stain (in vitro multiple administration); format: cell-based, mouse; conditions: MC3T3-E1, twice administration, Von Kossa on Day 9
Method: MC3T3-E1 cells were placed in each well in 24-well plates in an amount of 30,000 cells/well and cultured to confluency. The medium was removed and fresh α-MEM containing 10% JCS, 50 μg/ml of L-ascorbic acid and 10 mM β-glycerophosphate was added in an amount of 0.9 ml/well, followed by adding 0.1 ml/well of medium containing varying concentration of IFN. The medium was replaced with the medium containing the respective concentration of IFN every 4 days. On Day 9 from the first treatment with IFN, Von Kossa stain was performed to visualize the calcified foci.

[3] = system: ovariectomized mice of ddy strain; assay: Osteoporosis model mice: urinary D-Pyr (bone resorption marker); format: in vivo, mouse; conditions: for amount of excreted urinary D-Pyr compensated with urinary creatinine: ovariectomized mice, Week 4
Method: as §1, §2

MuIFNβ: murine interferon β, Lot M-0034, prepared by Toray Industries, Inc. by genetic engineering technique
bone volume (dry bone weight of femur) ([1]; ovariectomized mice, 10^3 units/head/time s.c.): exhibited prevention effect against further loss in the bone volume | bone volume (dry bone weight of femur) ([1]; ovariectomized mice, 10^5 units/head/time s.c. once per day, 25 times, Day 30): recovered the normal level of bone volume | bone volume (dry bone weight of femur) ([1]; sham operation mice, 10^5 units/head/time s.c.): significant increase in the bone volume was not observed | number of calcified foci and intensity of staining [2]: dose dependently increased | amount of excreted urinary D-Pyr compensated with urinary creatinine ([3]; 10^3 units/head/time): inhibition of bone resorption was observed | amount of excreted urinary D-Pyr compensated with urinary creatinine ([3]; 10^5 units/head/time): inhibition of bone resorption was observed | inhibition of excretion of urinary deoxypyridinoline ([3]; sham operation groups): is exhibited also in the sham operation groups
